# Measurements published in patent publication US12655120B2, “GPR52 modulator compounds” (NXERA PHARMA UK LIMITED, priority 2020, dated 2026).
# Target: T1, human GPR52 (Homo sapiens, UniProt Q9Y2T5)
# T1 construct: expressed in transfected cells; host or cells: HEKf suspension cells infected with BacMam virus
# Assay: GPR52 Agonist Functional cAMP Assay
# Assay type: cell-based
# Conditions: for EC50: HEKf cells infected with human GPR52 BacMam, HTRF cAMP, 30 min at 37° C., read-out: pEC50 average (converted); for Emax: normalised to DMSO (0%) and maximal compound 7m (J. Med. Chem., 2014, 57, 5226) response (100%)
# Protocol: HEKf suspension cells were infected for 24 h with 0.1% v/v human GPR52 expressing BacMam virus, a modified baculovirus designed for mammalian gene expression. Following BacMam infection, cells were pelleted by centrifugation (335 g, 5 min), resuspended in cell freezing medium (Sigma) and frozen at −150° C. until required. On experiment day, 25 nL GPR52 compound dilutions, prepared in DMSO, were stamped onto proxiplates (PerkinElmer) by a LabCyte ECHO acoustic dispenser. Frozen cells were thawed and resuspended in assay stimulation buffer (Cisbio) containing 0.5 mM 3-iso-butyl-1-methylxanthine (IBMX, Sigma) to achieve a density of 2000 cells per well. 10 μl cells were added to assay plates using a Multidrop Combi Reagent Dispenser (ThermoFisher) before centrifugation (335 g, 1 min). Cells were incubated with compounds at 37° C. for 30 min prior to addition of cAMP detection reagents (HiRange cAMP kit, Cisbio) which were prepared according to the manufacturer's instructions. Plates were shaken for 1 h at room temperature before reading on a PHERAstar FS plate reader (BMG Labtech) using standard HTRF settings. HTRF ratios were obtained by dividing the acceptor emissions (665 nm) by the donor emissions (620 nm) and multiplying by 10,000.
# T1 sequence (Q9Y2T5 whole entry): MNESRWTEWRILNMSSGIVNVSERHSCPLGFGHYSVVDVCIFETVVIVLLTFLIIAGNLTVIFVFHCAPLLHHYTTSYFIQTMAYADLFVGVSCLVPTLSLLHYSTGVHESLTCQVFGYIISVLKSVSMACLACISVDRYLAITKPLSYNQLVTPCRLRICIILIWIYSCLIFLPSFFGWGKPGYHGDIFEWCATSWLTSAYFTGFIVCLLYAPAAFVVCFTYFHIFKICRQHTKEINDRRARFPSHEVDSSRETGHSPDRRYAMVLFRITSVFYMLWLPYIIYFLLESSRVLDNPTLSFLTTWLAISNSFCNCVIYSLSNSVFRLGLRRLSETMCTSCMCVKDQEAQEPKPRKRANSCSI
SMILES,EC50 [nM],Emax [%]
"O=C(c1ccn(-c2cc(Cc3cc(F)cc(C(F)(F)F)c3)ccn2)n1)N1CCCC1 [Example 33, (1-(4-(3-fluoro-5-(trifluoromethyl)benzyl)pyridin-2-yl)-1H-pyrazol-3-yl)(pyrrolidin-1-yl)methanone]",126,87
"O=C(NC1COC1)c1ccn(-c2cc(Cc3cc(F)cc(C(F)(F)F)c3)ccn2)n1 [Example 34, 1-(4-(3-fluoro-5-(trifluoromethyl)benzyl)pyridin-2-yl)-N-(oxetan-3-yl)-1H-pyrazole-3-carboxamide]",631,77
"O=C(NCCO)c1ccn(-c2cc(Cc3cc(F)cc(C(F)(F)F)c3)ccn2)n1 [Example 35, 1-(4-(3-fluoro-5-(trifluoromethyl)benzyl)pyridin-2-yl)-N-(2-hydroxyethyl)-1H-pyrazole-3-carboxamide]",398,83
"COCCNC(=O)c1ccn(-c2cc(Cc3cc(F)cc(C(F)(F)F)c3)ccn2)n1 [Example 36, 1-(4-(3-fluoro-5-(trifluoromethyl)benzyl)pyridin-2-yl)-N-(2-methoxyethyl)-1H-pyrazole-3-carboxamide]",126,87
"Cc1nn(-c2cc(Cc3cc(F)cc(C(F)F)c3)ccn2)cc1C(N)=O [Example 37, 1-(4-(3-(difluoromethyl)-5-fluorobenzyl)pyridin-2-yl)-3-methyl-1H-pyrazole-4-carboxamide]",79.4,96
"NC(=O)c1ccn(-c2cc(Cc3cc(F)cc(C(F)F)c3)ccn2)n1 [Example 38, 1-(4-(3-(difluoromethyl)-5-fluorobenzyl)pyridin-2-yl)-1H-pyrazole-3-carboxamide]",20,93
"Cc1nn(-c2cc(Cc3cc(F)cc(C(F)(F)F)c3)ccn2)c(CO)c1C(=O)NCCO [Example 40, 1-(4-(3-fluoro-5-(trifluoromethyl)benzyl)pyridin-2-yl)-N-(2-hydroxyethyl)-5-(hydroxymethyl)-3-methyl-1H-pyrazole-4-carboxamide]",,101
"Cc1nn(-c2ccnc(Cc3cc(F)cc(C(F)(F)F)c3)c2)c(CO)c1C(N)=O [Example 41, 1-(2-(3-fluoro-5-(trifluoromethyl)benzyl)pyridin-4-yl)-5-(hydroxymethyl)-3-methyl-1H-pyrazole-4-carboxamide]",,98
"Cc1nn(-c2ccnc(Cc3cc(F)cc(C(F)(F)F)c3)c2)c(CO)c1C(=O)NCCO [Example 42, 1-(2-(3-fluoro-5-(trifluoromethyl)benzyl)pyridin-4-yl)-N-(2-hydroxyethyl)-5-(hydroxymethyl)-3-methyl-1H-pyrazole-4-carboxamide]",,100
"CNC(=O)c1c(C)nn(-c2cc(Cc3cc(F)cc(C(F)(F)F)c3)ccn2)c1CO [Example 43, 1-(4-(3-fluoro-5-(trifluoromethyl)benzyl)pyridin-2-yl)-5-(hydroxymethyl)-N,3-dimethyl-1H-pyrazole-4-carboxamide]",,101
"Cc1nn(-c2cc(Cc3cc(F)cc(C(F)F)c3)ccn2)c(CO)c1C(N)=O [Example 44, 1-(4-(3-(difluoromethyl)-5-fluorobenzyl)pyridin-2-yl)-5-(hydroxymethyl)-3-methyl-1H-pyrazole-4-carboxamide]",,101
"CNC(=O)c1cn(-c2cc(Cc3cc(F)cc(C(F)F)c3)ccn2)nc1C [Example 45, 1-(4-(3-(difluoromethyl)-5-fluorobenzyl)pyridin-2-yl)-N,3-dimethyl-1H-pyrazole-4-carboxamide]",200,91
"CNC(=O)c1ccn(-c2cc(Cc3cc(F)cc(C(F)F)c3)ccn2)n1 [Example 46, 1-(4-(3-(difluoromethyl)-5-fluorobenzyl)pyridin-2-yl)-N-methyl-1H-pyrazole-3-carboxamide]",50.1,88
"NC(=O)c1cn(-c2cccc(Cc3cc(F)cc(C(F)(F)F)c3)n2)nc1CO [Example 47, 1-(6-(3-fluoro-5-(trifluoromethyl)benzyl)pyridin-2-yl)-3-(hydroxymethyl)-1H-pyrazole-4-carboxamide]",501,52
"CNC(=O)c1cn(-c2cccc(Cc3cc(F)cc(C(F)(F)F)c3)n2)nc1CO [Example 48, 1-(6-(3-fluoro-5-(trifluoromethyl)benzyl)pyridin-2-yl)-3-(hydroxymethyl)-N-methyl-1H-pyrazole-4-carboxamide]",1580,36
"NC(=O)c1nn(-c2cc(Cc3cc(F)cc(C(F)(F)F)c3)ccn2)cc1CO [Example 49, 1-(4-(3-fluoro-5-(trifluoromethyl)benzyl)pyridin-2-yl)-4-(hydroxymethyl)-1H-pyrazole-3-carboxamide]",63.1,93
"CNC(=O)c1nn(-c2cc(Cc3cc(F)cc(C(F)(F)F)c3)ccn2)cc1CO [Example 50, 1-(4-(3-fluoro-5-(trifluoromethyl)benzyl)pyridin-2-yl)-4-(hydroxymethyl)-N-methyl-1H-pyrazole-3-carboxamide]",10,82
"NC(=O)c1nn(-c2cccc(Cc3cc(F)cc(C(F)(F)F)c3)n2)cc1CO [Example 51, 1-(6-(3-fluoro-5-(trifluoromethyl)benzyl)pyridin-2-yl)-4-(hydroxymethyl)-1H-pyrazole-3-carboxamide]",501,83
"Cc1cnc(Cc2cc(F)cc(C(F)(F)F)c2)cc1-n1cc(C(N)=O)c(C)n1 [Example 52, 1-(2-(3-fluoro-5-(trifluoromethyl)benzyl)-5-methylpyridin-4-yl)-3-methyl-1H-pyrazole-4-carboxamide]",100,100
"Cc1c(C(N)=O)c(CO)nn1-c1cc(Cc2cc(F)cc(C(F)(F)F)c2)ccn1 [Example 53, 1-(4-(3-fluoro-5-(trifluoromethyl)benzyl)pyridin-2-yl)-3-(hydroxymethyl)-5-methyl-1H-pyrazole-4-carboxamide]",79.4,97
"NC(=O)c1cc(CO)n(-c2cc(Cc3cc(F)cc(C(F)(F)F)c3)ccn2)n1 [Example 54, 1-(4-(3-fluoro-5-(trifluoromethyl)benzyl)pyridin-2-yl)-5-(hydroxymethyl)-1H-pyrazole-3-carboxamide]",79.4,92
"CNC(=O)c1ccn(-c2ccnc(Cc3cc(F)cc(C(F)(F)F)c3)c2)n1 [Example 55, 1-(2-(3-fluoro-5-(trifluoromethyl)benzyl)pyridin-4-yl)-N-methyl-1H-pyrazole-3-carboxamide]",126,83
"CNC(=O)c1cnn(-c2cc(Cc3cc(F)cc(C(F)(F)F)c3)ccn2)n1 [Example 56, 2-(4-(3-fluoro-5-(trifluoromethyl)benzyl)pyridin-2-yl)-N-methyl-2H-1,2,3-triazole-4-carboxamide]",100,84
"CNC(=O)c1nn(-c2cc(Cc3cc(F)cc(C(F)(F)F)c3)ccn2)cc1C [Example 57, 1-(4-(3-fluoro-5-(trifluoromethyl)benzyl)pyridin-2-yl)-N,4-dimethyl-1H-pyrazole-3-carboxamide]",3.16,87
"CNC(=O)c1nn(-c2cc(Cc3cc(F)cc(C(F)(F)F)c3)ccn2)nc1C [Example 58, 2-(4-(3-fluoro-5-(trifluoromethyl)benzyl)pyridin-2-yl)-N,5-dimethyl-2H-1,2,3-triazole-4-carboxamide]",15.8,92
"Cc1nn(-c2ccnc(C(O)c3cc(F)cc(C(F)(F)F)c3)c2)cc1C(N)=O (centres unmarked) [Example 59, 1-(2-((3-fluoro-5-(trifluoromethyl)phenyl)(hydroxy)methyl)pyridin-4-yl)-3-methyl-1H-pyrazole-4-carboxamide]",200,79
